This is an account of results in article PMC6266789 (Viruses, 2018).

For the test, the system named is NA of pH1N1 influenza virus recovered from lungs of IS mice. In kind it is biochemical, influenza A(H1N1)pdm09.

As to `CCOC(=O)C1=C[C@@H](OC(CC)CC)[C@H](NC(C)=O)[C@@H](N)C1` [Oseltamivir, oseltamivir], the “oseltamivir resistance phenotype associated with H275Y by NAI assay” value is reported as “not detected”.
